Tests used:
[1] = system: steatosis-induced liver organoids; experiment: Drug screening of autophagy library for suppressing lipid accumulation (Nile red); type: cell-based, human; settings: 10 μM during steatosis induction; top four of 151 chemical substances
Procedure: For drug screening, the organoids were treated with 151 chemical substances at a concentration of 10 μM in the autophagy library (Selleckchem; At L2600) during the hepatic steatosis induction period. Then, the organoids were stained with Nile red and fluorescence images were analyzed with a confocal microscope.

[2] = system: organoids in the HM conditions; experiment: APAP toxic damage, regeneration and inflammatory response of liver organoids; type: cell-based, human
Procedure: Time-lapsed images were taken at 37° C. under 5% CO2 at 30-minute intervals with an Olympus IX83 inverted microscope. The diameter of the organoid was measured using ImageJ program at the designated time point from the time lapsed image. Fluorescence images were taken with a confocal microscope. In addition, the organoids were cultured for 30 minutes with 7.5 μM dihydroethidium (Sigma; D7008) for detecting ROS, 30 μM monochlorobimane (Sigma; 69899) for measuring GSH content, and 2.5 μM Syto11 (Thermo Fisher; S7573) for staining nuclei.
In addition, the expressions of high-mobility group protein 1 (HMGB1), which is a protein involved in the detection of ROS and the inflammatory response of cells, ki67, which is a marker indicating cell proliferation, E-cadherin, which is an epithelial marker, LC3B, which is an autophagy marker, and Tom20, a mitochondrial marker, were analyzed at protein level according to the method described in Experimental Example 1.

2D MH = experiment: Drug toxicity by number of cells after 6 days of treatment, 2D differentiated mature hepatocytes; type: cell-based, human; settings: 0.8 μM and 4 μM
Procedure: (§1) The 2D differentiated mature hepatocytes (2D MH) and organoids (HM) in the HM conditions were seeded in a 24-well plate. […] Three days after seeding, the drug was added daily for 6 days, and toxicity was evaluated by calculating the number of cells using Countess II FL (Life Technology). Then, the organoids were washed with PBS, and fluorescence images were taken with a confocal microscope. Relative intensity was measured using ZEN program (Zeiss) in the same region.
(§2) Next, the effects of trovafloxacin (Sigma; PZ0015) and levofloxacin (Sigma; 28,266), which are structurally related antibiotics, on the 2D MH and the organoids in the HM conditions were compared.

[3] = system: organoids in the HM conditions; experiment: Oxygen consumption rate (OCR) for mitochondrial toxicity in liver organoids; type: cell-based, human; settings: 0.8 μM and 4 μM, 6 days
Procedure: (§3) Oxygen consumption rate (OCR) was measured for real-time monitoring of mitochondrial toxicity. Two days before the measurement, the organoids were seeded on XFe 96-well plate (Agilent; 102416-100). The probe cartridge was adjusted overnight in a non-C02 incubator at 37° C. On the assay day, the culture medium was removed and washed with warm assay medium (Agilent Seahorse XF base medium (102353-100) supplemented with 1 mM glutamine, 1 mM pyruvate and 17.5 mM glucose for OCR measurement), and the assay medium was added. The culture dish was placed in a non-CO2 incubator at 37° C. for 1 hour, and OCR was measured using Seahorse XFe96 Flux Analyzer according to the manufacturer's instructions.
(§4) For OCR measurement, ATP synthesis inhibitors (1.5 μM oligomycin and ETC complex V inhibitor), uncoupler (1 μM FCCP), and complex I inhibitor (0.5 μM Rotenone) plus complex III inhibitor (0.5 μM antimycin A) were sequentially added at designated time points. The measured value was normalized to the number of surviving cells measured by Cell Counting Kit-8 (Dogindo; CK04-01).

[4] = patients; cited from earlier work
[5] = read-out: Cmax concentration; cited from earlier work
[6] = system: organoids in the HM conditions; experiment: in vitro; settings: human, 6 days
Procedure: as §1, §2

in vitro = settings: human
Procedure: as §1, §2

[7] = system: steatosis-induced liver organoids; experiment: Hepatic steatosis model: mitochondrial respiration measured by OCR; type: cell-based, human; settings: added to FA
Procedure: as §3, §4
(§5) Meanwhile, in order to confirm the effect on the induction of hepatic steatosis, the organoids in the HM conditions were treated with BSA, FA, FA+etomoxir, FA+L-carnitine, and FA+metformin, respectively, and the results were compared.

[8] = system: steatosis-induced liver organoids; experiment: Hepatic steatosis model: triglyceride concentration; type: cell-based, human; settings: added to FA, compared with BSA control or FA alone
Procedure: For the analysis of triglyceride concentration, the steatosis-induced organoids were analyzed by using triglyceride assay kit (Abcam; ab65336) according to the manufacturer's instructions. The organoids were homogenized for 5 minutes using 1 mL of a 5% NP-40 solution under the condition of heated to 80 to 100° C. The pellets were diluted 10-fold with dilution water before starting the analysis. Absorbance was measured at 570 nm by using SpectraMax microplate reader.
as §5

[9] = system: steatosis-induced liver organoids; experiment: Hepatic steatosis model: lipid droplets by bright field microscope and Nile red staining; type: cell-based, human; settings: added to FA (oleate and palmitate), compared with FA alone
Procedure: The organoids in the HM conditions were seeded on a 24-well plate in order to be induced into liver organoids with steatosis. Three days after seeding, 0.5 mM oleate (Sigma; 07501) combined with 12% fatty acid-free BSA (Sigma; A8806) and 0.25 mM palmitate (Sigma; P9767) were added for 3 days, and images of accumulated lipid droplets were observed under a microscope. For Nile red staining, the samples were washed with PBS and fixed with 4% PFA at 4° C. overnight. The organoids were washed with PBS and treated with 10 μg/ml Nile red solution (Thermo Fisher; N1142) at room temperature for 5 minutes. Fluorescence images were taken with a confocal microscope.
as §5

CYP3A4 = CYP3A4 (Homo sapiens, UniProt P08684)
CYP3A4, sequence (P08684 whole entry): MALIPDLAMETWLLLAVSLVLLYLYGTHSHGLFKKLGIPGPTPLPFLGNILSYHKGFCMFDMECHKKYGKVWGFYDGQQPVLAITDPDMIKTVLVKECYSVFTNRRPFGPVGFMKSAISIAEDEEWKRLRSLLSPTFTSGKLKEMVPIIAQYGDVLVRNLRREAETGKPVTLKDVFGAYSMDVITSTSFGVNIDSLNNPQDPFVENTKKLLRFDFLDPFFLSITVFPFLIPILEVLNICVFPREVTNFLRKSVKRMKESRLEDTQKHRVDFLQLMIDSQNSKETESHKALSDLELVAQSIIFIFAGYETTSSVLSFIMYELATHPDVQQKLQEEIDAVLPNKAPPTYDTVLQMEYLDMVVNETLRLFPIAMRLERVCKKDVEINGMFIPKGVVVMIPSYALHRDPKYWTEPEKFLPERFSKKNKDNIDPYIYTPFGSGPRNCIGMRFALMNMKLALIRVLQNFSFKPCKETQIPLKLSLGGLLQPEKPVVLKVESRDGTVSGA
Procedure: Aliquots (100 μL) were diluted with 2-fold volume of acetonitrile containing carbamazepine as an internal standard for sample analysis and transferred to a 96-well plate.

## CC(=O)Nc1ccc(C(=O)Nc2ccccc2N)cc1 [Tacedinalin, Tacedinaline]
[1]
  phenotype of hepatic steatosis and lipid accumulation in drug screening: capable of restoring lipid accumulation

## CC(=O)Nc1ccc(O)cc1 [APAP, acetaminophen]
[2]; 20 mM APAP, dihydroethidium staining
  reactive oxygen species (ROS): increased
[2]; 20 mM APAP, immunofluorescence
  expression amounts of Ki67, E-cadherin, and Tom20: reduced
[2]; 20 mM APAP, immunofluorescence, migration to the cytoplasm
  expression of HMGB1: reduced
[2]; 20 mM daily for 7 days
  organoid morphology: severe morphological damage
[2]; 20 mM for 60 hours from day 2, new HM medium on day 4.5
  organoid morphology and size after recovery: recovered on day 7
[2]; APAP for 60 hours versus APAP for 5 days
  expression of LC3B: more strongly induced
[2]; APAP for 60 hours, then new HM medium on day 4.5, qRT-PCR
  expression of IL-10: significantly increased
[2]; APAP for 7 days, qRT-PCR
  expressions of proinflammatory mediators (IL-1β, IL-6, IL-8) and pathological mediators (TNF-α and FasL): strongly induced

## N[C@@H]1[C@H]2CN(c3nc4c(cc3F)c(=O)c(C(=O)O)cn4-c3ccc(F)cc3F)C[C@@H]12 [trovafloxacin]
2D MH
  number of cells: little change
[3]
  OCR (mitochondrial respiration): reduction of OCR
[4]
  reported side effect: patient death due to liver failure
[5]
  Cmax: 4.1 µM

## Cc1c(C)c2c(c(C)c1O)CCC(C)(COc1ccc(CC3SC(=O)NC3=O)cc1)O2 (stereo not drawn) [troglitazone, Troglitazone]
[6]
  toxic response, 2D MH versus organoids: different in 2D and 3D models

## CO[C@H]1C[C@@H]2CC[C@@H](C)[C@@](O)(O2)C(=O)C(=O)N2CCCC[C@H]2C(=O)O[C@H]([C@H](C)C[C@@H]2CC[C@@H](OCCO)[C@H](OC)C2)CC(=O)[C@H](C)/C=C(\C)[C@@H](O)[C@@H](OC)C(=O)[C@H](C)C[C@H](C)/C=C/C=C/C=C/1C [Everolimus]
[1]
  phenotype of hepatic steatosis and lipid accumulation in drug screening: capable of restoring lipid accumulation

## C[C@H]1COc2c(N3CCN(C)CC3)c(F)cc3c(=O)c(C(=O)O)cn1c23 [levofloxacin]
In vitro
  cytotoxicity at 6 days, 100 μM: 36%
[5]
  Cmax: 23.8 µM

## CCOC(=O)[C@@]1(CCCCCCOc2ccc(Cl)cc2)CO1 [etomoxir]
[7]
  mitochondrial respiration measured by OCR: significantly reduced
[8]
  intracellular triglyceride concentration: significantly increased
[9]
  accumulation of intracellular lipid droplets / lipid accumulation: significant accumulation

## C[C@]12CC[C@H]3[C@@H](CCC4=CC(=O)CC[C@@]43C)[C@@H]1CC[C@@H]2O [testosterone]
CYP3A4
  metabolism to 6β-hydroxytestosterone: directly hydroxylated

## O=C(CCCCCN1C(=O)c2cccc3cccc(c23)C1=O)NO [Scriptaid]
[1]
  phenotype of hepatic steatosis and lipid accumulation in drug screening: capable of restoring lipid accumulation

## CN(C)C(=N)N=C(N)N [metformin]
[8]
  intracellular triglyceride concentration: not reduced
[9]
  accumulation of intracellular lipid droplets / lipid accumulation: slightly reduced

## C[N+](C)(C)C[C@H](O)CC(=O)[O-] [L-carnitine]
[7]
  mitochondrial respiration measured by OCR: recovered
[9]
  accumulation of intracellular lipid droplets / lipid accumulation: significantly reduced

## COc1ccc(-c2ccc3c(N4CCOCC4)nc(N4C[C@@H](C)O[C@@H](C)C4)nc3n2)cc1CO [KU-0063794]
[1]
  phenotype of hepatic steatosis and lipid accumulation in drug screening: capable of restoring lipid accumulation
